The values that follow come from PubChem BioAssay AID252 (DTP/NCI, 2004).

“And” between values parts separate entries of the source, which are not always exact repeats. Equal entries are not always repeated. Inconclusive results and toxic doses are left out.

The subject of the assay is BDF1 mice, intracerebral L1210 leukemia, survival T/C. In words: NCI In Vivo Anticancer Drug Screen. Data for tumor model L1210 Leukemia (intracerebral) in B6D2F1 (BDF1) mice. The settings on record: higher = longer survival. In outline:
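Transplantable tumour-bearing mice, compound-treated vs vehicle controls; read-out survival, reported as T/C ratio.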

[1] abbreviates: endpoint: mean survival time, dose: 1.8 mg/kg/injection, schedule: Q01DX009 (ip), vehicle: water.
[2] abbreviates: endpoint: mean survival time, dose: 2.5 mg/kg/injection, schedule: Q01DX009 (ip), vehicle: saline.
Where [3] appears, read: endpoint: mean survival time, dose: 5.0 mg/kg/injection, schedule: Q01DX009 (ip), vehicle: saline.
[4] abbreviates: endpoint: mean survival time, dose: 10.0 mg/kg/injection, schedule: Q01DX009 (ip), vehicle: saline.
Where [5] appears, read: endpoint: mean survival time, dose: 440.0 mg/kg/injection, schedule: Q01DX001 (ip), vehicle: carboxymethylcellulose (CMC).
Where [6] appears, read: endpoint: mean survival time, dose: 670.0 mg/kg/injection, schedule: Q01DX001 (ip), vehicle: carboxymethylcellulose (CMC).

For the compound `OC(C1CO1)C(O)C1CO1` (stereo unspecified), the T/C was 96 % of control (endpoint: mean survival time, dose: 0.65 mg/kg/injection, schedule: Q01DX009 (ip), vehicle: water); 109 % of control and 120 % of control (endpoint: mean survival time, dose: 1.0 mg/kg/injection, schedule: Q01DX009 (ip), vehicle: saline); 110 % of control (endpoint: mean survival time, dose: 1.08 mg/kg/injection, schedule: Q01DX009 (ip), vehicle: water); 123 % of control under setting [1]; 92 % of control (endpoint: mean survival time, dose: 2.0 mg/kg/injection, schedule: Q01DX009 (ip), vehicle: saline); 87 % of control (endpoint: mean survival time, dose: 2.0 mg/kg/injection, schedule: Q03HX024 (ip), vehicle: saline). The T/C was 109 % of control (endpoint: mean survival time, dose: 2.5 mg/kg/injection, schedule: Q01DX001 (ip), vehicle: water); 103 % of control and 92 % of control (endpoint: mean survival time, dose: 4.0 mg/kg/injection, schedule: Q01DX009 (ip), vehicle: saline); 104 % of control (endpoint: mean survival time, dose: 20.0 mg/kg/injection, schedule: Q01DX001 (ip), vehicle: water); 102 % of control (endpoint: mean survival time, dose: 40.0 mg/kg/injection, schedule: Q01DX001 (ip), vehicle: water); 106 % of control (endpoint: median survival time, dose: 0.5 mg/kg/injection, schedule: Q01DX001 (oral), vehicle: saline); 115 % of control (endpoint: median survival time, dose: 4.0 mg/kg/injection, schedule: Q01DX001 (oral), vehicle: saline). The T/C was 97 % of control (endpoint: median survival time, dose: 8.0 mg/kg/injection, schedule: Q01DX001 (oral), vehicle: saline) and 86 % of control (endpoint: median survival time, dose: 16.0 mg/kg/injection, schedule: Q01DX001 (oral), vehicle: saline).

Turning to `CC(=O)NC1=C(N2CC2C)C(=O)C(NC(C)=O)=C(N2CC2C)C1=O` (stereo unspecified), the T/C by setting is: (endpoint: mean survival time, dose: 2.5 mg/kg/injection, schedule: Q01DX009 (ip), vehicle: saline with Tween-80) 118 % of control; under setting [2], 111 % of control; (endpoint: mean survival time, dose: 5.0 mg/kg/injection, schedule: Q01DX009 (ip), vehicle: saline with Tween-80) 120 % of control; under setting [3], 114 % of control; (endpoint: mean survival time, dose: 10.0 mg/kg/injection, schedule: Q01DX009 (ip), vehicle: saline with Tween-80) 94 % of control; under setting [4], 97 % of control. For the same compound, the T/C (endpoint: mean survival time, dose: 20.0 mg/kg/injection, schedule: Q01DX009 (ip), vehicle: saline with Tween-80) was 88 % of control.

Regarding `O=NN(CCCl)C(=O)Nc1ccc(CC(=O)O)cc1`, the T/C is 104 % of control (endpoint: mean survival time, dose: 6.0 mg/kg/injection, schedule: Q01DX001 (ip), vehicle: carboxymethylcellulose (CMC)); 106 % of control (endpoint: mean survival time, dose: 9.0 mg/kg/injection, schedule: Q01DX001 (ip), vehicle: carboxymethylcellulose (CMC)); 110 % of control (endpoint: mean survival time, dose: 13.0 mg/kg/injection, schedule: Q01DX001 (ip), vehicle: carboxymethylcellulose (CMC)); 104 % of control (endpoint: mean survival time, dose: 26.0 mg/kg/injection, schedule: Q01DX001 (ip), vehicle: carboxymethylcellulose (CMC)).

For `CS(=O)(=O)OCC(O)C(O)COS(C)(=O)=O` (stereo unspecified), the T/C is, setting by setting: under setting [5], 92 % of control and 97 % of control; under setting [6], 101 % of control and 100 % of control; (endpoint: mean survival time, dose: 1000.0 mg/kg/injection, schedule: Q01DX001 (ip), vehicle: carboxymethylcellulose (CMC)) 102 % of control and 100 % of control.

For `CN=NNc1nc[nH]c1C(N)=O`, the T/C (endpoint: mean survival time, dose: 12.5 mg/kg/injection, schedule: Q01DX Z (ip), vehicle: carboxymethylcellulose (CMC)) is 102 % of control; the T/C (endpoint: mean survival time, dose: 25.0 mg/kg/injection, schedule: Q01DX Z (ip), vehicle: carboxymethylcellulose (CMC)) was 114 % of control; the T/C (endpoint: mean survival time, dose: 50.0 mg/kg/injection, schedule: Q01DX Z (ip), vehicle: carboxymethylcellulose (CMC)) was 111 % of control; the T/C (endpoint: mean survival time, dose: 100.0 mg/kg/injection, schedule: Q01DX Z (ip), vehicle: carboxymethylcellulose (CMC)) is 87 % of control.

In the case of `O=NN(CCF)C(=O)NCCF`, the T/C is, setting by setting: (endpoint: mean survival time, dose: 3.5 mg/kg/injection, schedule: Q01DX001 (ip), vehicle: saline) 160 % of control; (endpoint: mean survival time, dose: 5.0 mg/kg/injection, schedule: Q01DX001 (ip), vehicle: saline) 208 % of control; (endpoint: mean survival time, dose: 7.0 mg/kg/injection, schedule: Q01DX001 (ip), vehicle: saline) 254 % of control; (endpoint: mean survival time, dose: 8.0 mg/kg/injection, schedule: Q01DX001 (ip), vehicle: saline) 284 % of control; (endpoint: mean survival time, dose: 14.0 mg/kg/injection, schedule: Q01DX001 (ip), vehicle: saline) 303 % of control.

As for `O=NN(CCBr)C(=O)NC1CCCCC1`, the T/C is 108 % of control (endpoint: mean survival time, dose: 137.0 mg/kg/injection, schedule: Q01DX001 (ip), vehicle: carboxymethylcellulose (CMC)) and 224 % of control (endpoint: mean survival time, dose: 345.0 mg/kg/injection, schedule: Q01DX001 (ip), vehicle: carboxymethylcellulose (CMC)).

As to `O=c1[nH]c(=O)n(C2CC(O)C(CO)O2)cc1F` (stereo unspecified), the T/C (endpoint: mean survival time, dose: 86.0 mg/kg/injection, schedule: Q01DX015 (ip), vehicle: saline) is 160 % of control; the T/C (endpoint: mean survival time, dose: 239.0 mg/kg/injection, schedule: Q01DX001 (ip), vehicle: saline) was 109 % of control; the T/C (endpoint: mean survival time, dose: 364.0 mg/kg/injection, schedule: Q01DX001 (ip), vehicle: saline) was 104 % of control; the T/C (endpoint: mean survival time, dose: 543.0 mg/kg/injection, schedule: Q01DX001 (ip), vehicle: saline) is 117 % of control.

For the compound `Cc1ccc(S(=O)(=O)NC(=O)N(CCCl)N=O)cc1`, the T/C is 119 % of control (endpoint: mean survival time, dose: 31.0 mg/kg/injection, schedule: Q01DX001 (ip), vehicle: other); 116 % of control (endpoint: mean survival time, dose: 62.0 mg/kg/injection, schedule: Q01DX001 (ip), vehicle: other); 115 % of control (endpoint: mean survival time, dose: 140.0 mg/kg/injection, schedule: Q01DX001 (ip), vehicle: other).

Regarding `O=NN(CCCl)C(=O)Nc1ccc(Oc2ccc(NC(=O)N(CCCl)N=O)cc2)cc1`, the T/C was 116 % of control under setting [5]; 119 % of control under setting [6]; 122 % of control (endpoint: mean survival time, dose: 1500.0 mg/kg/injection, schedule: Q01DX001 (ip), vehicle: carboxymethylcellulose (CMC)).

For `COc1cc(NS(C)(=O)=O)ccc1Nc1c2ccccc2nc2ccccc12`, the T/C (endpoint: mean survival time, dose: 0.5 mg/kg/injection, schedule: Q01DX009 (ip), vehicle: other) was 98 % of control; the T/C (endpoint: mean survival time, dose: 0.75 mg/kg/injection, schedule: Q01DX009 (ip), vehicle: saline) is 100 % of control; the T/C (endpoint: mean survival time, dose: 0.75 mg/kg/injection, schedule: Q01DX009 (sc), vehicle: saline) is 101 % of control; the T/C (endpoint: mean survival time, dose: 1.0 mg/kg/injection, schedule: Q01DX009 (ip), vehicle: other) is 92 % of control; the T/C (endpoint: mean survival time, dose: 1.25 mg/kg/injection, schedule: Q01DX009 (ip), vehicle: saline) was 97 % of control; the T/C (endpoint: mean survival time, dose: 1.25 mg/kg/injection, schedule: Q01DX009 (sc), vehicle: saline) is 94 % of control. Also, the T/C was 100 % of control (endpoint: mean survival time, dose: 1.5 mg/kg/injection, schedule: Q01DX009 (ip), vehicle: saline); 93 % of control (endpoint: mean survival time, dose: 1.5 mg/kg/injection, schedule: Q01DX009 (sc), vehicle: saline); 92 % of control under setting [1]; 105 % of control (endpoint: mean survival time, dose: 2.0 mg/kg/injection, schedule: Q01DX009 (ip), vehicle: other); 108 % of control and 97 % of control under setting [2]; 98 % of control and 95 % of control (endpoint: mean survival time, dose: 2.5 mg/kg/injection, schedule: Q01DX009 (sc), vehicle: saline). For the same compound, the T/C is 102 % of control (endpoint: mean survival time, dose: 3.0 mg/kg/injection, schedule: Q01DX009 (ip), vehicle: saline); 88 % of control (endpoint: mean survival time, dose: 3.0 mg/kg/injection, schedule: Q01DX009 (ip), vehicle: water); 92 % of control (endpoint: mean survival time, dose: 3.0 mg/kg/injection, schedule: Q01DX009 (sc), vehicle: saline); 121 % of control and 108 % of control under setting [3]; 101 % of control and 93 % of control (endpoint: mean survival time, dose: 5.0 mg/kg/injection, schedule: Q01DX009 (sc), vehicle: saline); 104 % of control (endpoint: mean survival time, dose: 6.0 mg/kg/injection, schedule: Q01DX009 (ip), vehicle: saline). For the same compound, the T/C runs as follows: (endpoint: mean survival time, dose: 6.0 mg/kg/injection, schedule: Q01DX009 (sc), vehicle: saline) 96 % of control; under setting [4], 111 % of control; (endpoint: mean survival time, dose: 10.0 mg/kg/injection, schedule: Q01DX009 (sc), vehicle: saline) 100 % of control and 98 % of control; (endpoint: mean survival time, dose: 20.0 mg/kg/injection, schedule: Q01DX009 (sc), vehicle: saline) 109 % of control.
